Experimental data reported in ChEMBL document CHEMBL5674860, “Optimized Dual-Glo Assay to identify co-culture-induced drug vulnerabilities in 3D CRC models” (2024).

Tests used:
Format in all cases: functional, Homo sapiens
Parameters in all cases: dose or concentration left out as unconfirmed
Colon cancer organoid [1] = assay: Optimized Dual-Glo assay to identify co-culture induced drug vulnerabilities using donated chemical probes and chemogenomics kinase set in O14 CRC organoid and F14 CAF mono and co-culture. […] Cell viability is reported both mono and co-culture models.
Colon cancer organoid [2] = assay: Optimized Dual-Glo assay to identify co-culture induced drug vulnerabilities using donated chemical probes and chemogenomics kinase set in O06 CRC organoid and F06 CAF mono and co-culture. […] Cell viability is reported both mono and co-culture models.
Colon cancer organoid [3] = assay: Optimized Dual-Glo assay to identify co-culture induced drug vulnerabilities using donated chemical probes and chemogenomics kinase set in O20 CRC organoid and F20 CAF mono and co-culture. […] Cell viability is reported both mono and co-culture models.
[4] = Culture type Co-Culture, Transduced with Lucferase2-P2A-EGFP lentivirus
[5] = Culture type Co-Culture, Transduced with Renilla-dsRed lentivirus
[6] = Culture type Mono-Culture, Transduced with Lucferase2-P2A-EGFP lentivirus
[7] = Culture type Mono-Culture, Transduced with Renilla-dsRed lentivirus

| SMILES | Cell Viability (Colon cancer organoid [1]; [4]) [%] | Cell Viability (Colon cancer organoid [1]; [5]) [%] | Cell Viability (Colon cancer organoid [1]; [6]) [%] | Cell Viability (Colon cancer organoid [1]; [7]) [%] | Cell Viability (Colon cancer organoid [2]; [4]) [%] | Cell Viability (Colon cancer organoid [2]; [5]) [%] | Cell Viability (Colon cancer organoid [2]; [6]) [%] | Cell Viability (Colon cancer organoid [2]; [7]) [%] | Cell Viability (Colon cancer organoid [3]; [4]) [%] | Cell Viability (Colon cancer organoid [3]; [5]) [%] | Cell Viability (Colon cancer organoid [3]; [6]) [%] | Cell Viability (Colon cancer organoid [3]; [7]) [%] |
| --- | --- | --- | --- | --- | --- | --- | --- | --- | --- | --- | --- | --- |
| O=C(Nc1ccc(-c2ccnc(Nc3ccc(N4CCOCC4)cc3)n2)cc1)[C@@H]1CCCN1 | 127.595 | 79.807 | 135.011 | 98.0054 | 100.254 | 96.014 | 101.806 | 108.082 | 138.223 | 76.0213 | 82.2702 | 101.459 |
| CC[C@H](CO)Nc1nc(NCc2ccccc2)c2ncn(C(C)C)c2n1 [SELICICLIB] | 135.109 | 107.454 | 106.101 | 84.912 | 93.234 | 112.199 | 108.084 | 105.93 | 126.322 | 75.3934 | 94.0529 | 97.9285 |
| O=C(c1ccc(C(=O)N2CCC(N3CCCC3)CC2)c(Nc2ccccc2)c1)N1CCC(N2CCCC2)CC1 | 102.524 | 98.4049 | 104.115 | 98.5481 | 108.091 | 96.0319 | 93.2966 | 98.6037 | 128.422 | 96.2949 | 123.486 | 97.1366 |
| NS(=O)(=O)c1cc(NC(=O)Cc2ccccc2)ccc1Oc1cccc(Cl)c1 [BAY-1797] | 108.747 | 112.127 | 131.361 | 106.475 | 120.23 | 167.635 | 96.4062 | 112.706 | 89.0927 | 86.996 | 102.238 | 103.793 |
| CCOC(=O)c1c(/C(C#N)=C\N)c2ccc(Cl)c(Cl)c2n1C | 135.947 | 65.0868 | 144.997 | 76.1592 | 122.99 | 97.4073 | 58.62 | 82.6208 | 92.1376 | 87.4636 | 163.638 | 89.5418 |
| C[C@@H]1CCc2ncc(F)cc2[C@H]2CCCN2c2ccn3ncc(c3n2)C(=O)N1 [SELITRECTINIB] | 80.4223 | 107.034 | 125.619 | 100.351 | 101.733 | 118.761 | 174.799 | 120.583 | 166.265 | 73.3915 | 102.231 | 92.0834 |
| CO[C@@H](C)c1c(Nc2ccc([C@@H](N(C)C(=O)C3CCS(=O)(=O)CC3)C(F)(F)F)cc2)cnc2cc(Cl)nn12 [NVS-MALT1-C] | 62.8563 | 80.6398 | 85.3196 | 104.147 | 50.6957 | 73.6522 | 67.3669 | 85.1011 | 83.6241 | 108.215 | 61.6775 | 90.6676 |
| Cl.O=C([C@@H](Cc1cccc(C(F)(F)F)c1)NS(=O)(=O)c1cc(F)c2c(c1)CCNC2)N1CCCC1 | 99.1964 | 106.618 | 90.5758 | 109.686 | 84.043 | 115.078 | 78.4722 | 93.27 | 152.168 | 150.248 | 145.099 | 80.4285 |
| CC(=O)Nc1c(F)cc(C(=O)N[C@H]2CC[C@H](O)CC2)cc1O[C@@H](C)c1ccccc1 [GSK046] | 94.8329 | 149.721 | 98.5047 | 138.141 | 141.493 | 157.689 | 89.308 | 140.24 | 117.929 | 118.66 | 59.393 | 129.379 |
| Cc1nnc2c3ccccc3c(N[C@@H](C)[C@H](c3ccccc3)N(C)C)nn12 | 89.8317 | 122.44 | 117.177 | 107.176 | 95.7989 | 115.114 | 100.296 | 129.772 | 82.0862 | 127.368 | 95.9209 | 100.184 |
| Cn1cc(-c2ccc3occ(-c4cccc(-c5ccncc5)c4)c3n2)cn1 | 113.323 | 67.5057 | 72.9931 | 81.4959 | 91.2802 | 94.5664 | 138.621 | 110.377 | 65.7439 | 132.411 | 69.6903 | 72.543 |
| CN(C)C(=O)c1cc2cnc(Nc3ccc(N4CCNCC4)cn3)nc2n1C1CCCC1 [RIBOCICLIB] | 59.6816 | 144.098 | 62.61 | 96.4403 | 54.2961 | 126.231 | 30.4641 | 111.56 | 36.9577 | 144.514 | 20.5669 | 95.5583 |
| COc1cc2c(cc1-c1c(C)noc1C)ncc1[nH]c(=O)n([C@H](C)c3ccccn3)c12 | 36.9013 | 317.138 | 43.8564 | 208.742 | 43.5488 | 325.273 | 54.5625 | 294.029 | 26.0295 | 172.215 | 25.6738 | 101.868 |
| O=C(NC[C@@H]1[C@H]2CN(C(=O)OCc3cc(C(F)(F)F)cc(C(F)(F)F)c3)C[C@@H]12)c1ccc2[nH]nnc2c1 [BI 2545] | 75.1961 | 105.32 | 137.829 | 80.7794 | 124.688 | 144.467 | 99.0945 | 89.0013 | 135.058 | 115.933 | 103.58 | 122.062 |
